Measured values: PubChem BioAssay AID1421 (Emory University Molecular Libraries Screening Center, 2008)
Where “and” joins values, the source holds several entries; their conditions need not be identical. Equal values may be shown once. Calls of active or inactive are those of the source. The rule behind the calls is not given here.

target: Prostaglandin E2 receptor EP2 subtype (Homo sapiens) (UniProt P43116); assay: compounds shifting PGE2 potency at EP2 – cell-based, human EP2, PGE2 EC50 shift, dose response (AID 1421); conditions: EP2-expressing cells, PGE2 EC50 shift by compound
Sequence (P43116 whole entry, looked up): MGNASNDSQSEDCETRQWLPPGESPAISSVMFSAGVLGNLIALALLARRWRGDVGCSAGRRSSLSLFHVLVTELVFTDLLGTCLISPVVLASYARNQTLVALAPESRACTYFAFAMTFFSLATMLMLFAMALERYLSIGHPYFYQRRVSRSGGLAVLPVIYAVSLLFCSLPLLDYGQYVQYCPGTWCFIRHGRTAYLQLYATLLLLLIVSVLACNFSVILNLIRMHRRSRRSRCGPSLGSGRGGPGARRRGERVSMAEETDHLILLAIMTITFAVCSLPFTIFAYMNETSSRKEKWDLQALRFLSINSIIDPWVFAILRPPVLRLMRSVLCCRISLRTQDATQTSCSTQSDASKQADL

`Cc1nn2c(c1-c1ccccc1)N=C(c1ccco1)CC2c1ccccc1` (stereo unspecified) was tested, and the outcome was “active”.
For `CC1CCN(c2ccccc2NC(=O)c2ccc(C#N)cc2F)CC1`, the outcome was “active”.
`CC1CCc2c(sc(N)c2C(=O)OC(C)C)C1` (stereo unspecified) was tested, and the outcome was “active”.
For `C=CCSc1nc2ccccc2n1S(=O)(=O)c1ccc(Cl)cc1`, the outcome was “active”.
In the case of `O=C(Nc1ccccc1N1CCN(c2ccccc2)CC1)C12CC3CC(CC(C3)C1)C2`, the outcome was “active”.
For `C/C(=N\NC(=O)NC1CCCCC1)C1CCCCC1`, the outcome was “active”.
`Cc1ccccc1C(=O)Nc1ccccc1N1CCCCC1` was tested, and the outcome was “active”.
In the case of `COc1ccc(-c2cc(C(F)(F)F)nc(N3CCCCC3)n2)cc1OC`, the outcome was “active”.
`COc1cc(-c2nc(-c3cccc(C(F)(F)F)c3)no2)cc(OC)c1OC` was tested, and the outcome was “active”.
For `NC(=O)CSc1nc(-c2ccccc2)c(-c2ccccc2)o1`, the outcome was “active”.

same assay, conditions: EP2-expressing cells, PGE2 EC50 shift by compound; measured here: PGE2 EC50 at 6.7 uM compound

In order of rising PGE2 EC50 with compound:
1. Cc1cccc(N=N/C(=C\O)C(=O)c2ccc(Br)cc2)c1  0.31 nM
2. c1ccc(CCc2ccccc2-c2nc(-c3ccccn3)no2)cc1  0.32 nM
3. COc1ccc(C(=O)O)cc1NC(=S)NC(=O)c1ccc(-c2ccc(Cl)cc2)o1  0.36 nM
4. Cc1nc2c3cc(F)ccc3n(Cc3ccccc3)c2s1  0.57 nM
5. Cc1ccc(N=Cc2cc(Cc3ccccc3Cl)cc([N+](=O)[O-])c2O)c(O)c1  0.6 nM
6. O=C(NNc1ccc([N+](=O)[O-])cc1[N+](=O)[O-])C1C2CCCCC21 (stereo unspecified)  0.66 nM
7. CC1=CC2C(C(C)C)CCC(C)(O)C2CC1 (stereo unspecified)  0.68 nM
8. CCOC(=O)c1c(-c2ccc(C)cc2)csc1NC(=O)CCN1CC(C)OC(C)C1 (stereo unspecified)  0.68 nM
9. Cc1ccc(S(=O)(=O)c2c(C)nn(-c3ccccc3)c2OC(=O)c2ccco2)cc1  0.71 nM
10. O=c1[nH]c(CSc2ncc(-c3ccc(F)cc3)n2Cc2ccco2)nc2ccccc12  0.71 nM
11. CCSC1=N/C(=C\c2ccccc2)C(=O)N1c1ccc(OC)cc1  0.75 nM
12. Cc1ccc(-c2csc(Nc3ccc(C(=O)O)cc3)[n+]2Cc2ccccc2)cc1  0.77 nM
13. Cc1nn2c(c1-c1ccccc1)N=C(c1ccco1)CC2c1ccccc1 (stereo unspecified)  0.8 nM
14. O=c1c2ccccc2n(Cc2ccc(Cl)cc2)c(=O)n1Cc1ccco1  0.82 nM
15. Cn1c(=O)[nH]c(=O)c2c1nc(CN1CCN(c3ccccc3F)CC1)n2CCCc1ccccc1  0.83 nM
16. O=C(COC(=O)c1ccccc1)Nc1ccccc1Sc1ccccc1  0.83 nM
17. Cc1noc(C)c1CSc1nc2ccccc2c(=O)n1-c1ccc(Cl)cc1  0.83 nM
18. CCN(Cc1cc(Cl)cc(C)c1O)Cc1c(O)ccc2ccccc12  0.84 nM
19. Cc1ccccc1-n1c(=O)[nH]c(=O)c2c(N)c(C(=O)c3ccc(Cl)cc3)sc21  0.86 nM
20. CN(Cc1c(C(=O)N2CCc3ccccc3C2)nc2ccc(Cl)cn12)C(C1CC1)C1CC1  0.9 nM
21. CC1CCc2c(sc(N)c2C(=O)OC(C)C)C1 (stereo unspecified)  0.91 nM
22. CC1CCN(c2ccccc2NC(=O)c2ccc(C#N)cc2F)CC1  0.93 nM
23. CC1=C[N+](=O)c2ccccc2[N+]1=O  0.94 nM
24. CC(C)c1ccc(/C=N/Nc2cc(N3CCOCC3)nc(N3CCOCC3)n2)cc1  0.98 nM
25. Cc1cccc2cc(CN(Cc3cccs3)C(c3nnnn3C3CCCC3)C(C)C)c(=O)[nH]c12 (stereo unspecified)  0.99 nM
26. CCCCC(CC)CN1CN(CC(CC)CCCC)CC(C)(N)C1 (stereo unspecified)  1.05 nM
27. COc1cc(-c2noc(-c3cccc(Cl)c3)n2)cc(OC)c1OC  1.11 nM
28. Cc1ccc(/C=C/c2nc3ccccc3c(=O)n2CCc2ccccc2)cc1  1.15 nM
29. CCCSc1nc(N2CCCC2)c2c(c1C#N)CC(C)(C)OC2  1.15 nM
30. CCCCNc1nc2c(S(=O)(=O)c3ccccc3)nnn2c2ccccc12  1.17 nM
31. Cc1cc(SC(C)C(=O)O)nc2ccccc12 (stereo unspecified)  1.18 nM
32. CCN(CC)P(=O)(Nc1ccccc1Br)c1ccc(N(C)C)cc1NC(=O)c1ccco1 (stereo unspecified)  1.19 nM
33. Clc1ccc(Cl)c(-c2ccc(/C=N/c3ncn[nH]3)o2)c1  1.34 nM
34. O=C(CSc1nnc(-c2cc3ccccc3cc2O)n1Cc1ccco1)c1ccc(F)cc1  1.35 nM
35. Clc1ccc(Cn2c(/C=C/c3ccco3)nc3ccccc32)cc1  1.38 nM
36. CCCCOC(=O)CSc1nc(N)c(C#N)c(-c2ccc(OCC)cc2)c1C#N  1.39 nM
37. CCc1ccc(OCc2n[nH]c(=S)n2C(C)CCCC(C)C)cc1 (stereo unspecified)  1.4 nM
38. COc1cccc(C2=NN(C(=O)c3cccs3)C(O)(C(F)(F)F)C2)c1 (stereo unspecified)  1.44 nM
39. O=C(c1cc2sccc2n1Cc1ccc(F)cc1)N1CCCc2ccccc21  1.56 nM
40. CCCCCCC/C=C\CCCCCCCCC(=O)O  1.56 nM
41. CC(=O)N1c2ccccc2C(C)CC12CCCCC2 (stereo unspecified)  2.48 nM
42. CC(C)C1(C)N=C(c2ncccc2C(=O)O)NC1=O (stereo unspecified)  2.52 nM
43. S=c1[nH]nc(Cc2ccccc2)n1Cc1ccco1  2.65 nM
44. CCOc1ccccc1Cn1c(=O)sc2ccccc21  2.65 nM
45. Cc1cc(SCC(=O)NCCC2=CCCCC2)nc2ccccc12  2.66 nM

In the case of `CCc1oc2ccccc2c1C(=O)c1cc(Br)c(O)c(Br)c1`, the PGE2 EC50 with compound was 1.02 nM and 0.68 nM.
